Earlier results in PMC9186412, “Rational Framework for the Design of Trp- and Arg-Rich Peptide Antibiotics Against Multidrug-Resistant Bacteria” (Frontiers in Microbiology, 2022).
Like-named read-outs stand apart in the source and are kept apart here.

What was measured:
CDC AR isolates [1] = system: CDC AR isolates; parameters: key: S (green), susceptible; I (blue), intermediate; R (red), resistant; conditions: data provided by the CDC, ref CDC, cited from earlier work
Description: Supplement Table_3.XLSX, sheet "CDC AR isolates profiles" | column: G(-) strains

CDC AR isolates [2] = system: CDC AR isolates; parameters: key: S (green), susceptible; I (blue), intermediate; R (red), resistant; conditions: data provided by the CDC, ref CDC, cited from earlier work; remark: listed apart in the source
[3] = Escherichia coli EC541, CDC AR isolate
[4] = Escherichia coli EC543, CDC AR isolate
[5] = Escherichia coli EC544, CDC AR isolate
[6] = Escherichia coli EC549, CDC AR isolate
[7] = Staphylococcus aureus SA462, CDC AR isolate
[8] = Staphylococcus aureus SA463, CDC AR isolate
[9] = Staphylococcus aureus SA561, CDC AR isolate
[10] = Staphylococcus aureus SA461, CDC AR isolate
[11] = Acinetobacter baumannii AB273, CDC AR isolate
[12] = Acinetobacter baumannii AB274, CDC AR isolate
[13] = Acinetobacter baumannii AB275, CDC AR isolate
[14] = Acinetobacter baumannii AB276, CDC AR isolate
[15] = Enterobacter cloacae E62, CDC AR isolate
[16] = Enterobacter cloacae E544, CDC AR isolate
[17] = Enterobacter cloacae E545, CDC AR isolate
[18] = Enterobacter cloacae E546, CDC AR isolate
[19] = Enterococcus faecium EF500, CDC AR isolate
[20] = Enterococcus faecium EF671, CDC AR isolate
[21] = Enterococcus faecium EF672, CDC AR isolate
[22] = Klebsiella pneumoniae KP542, CDC AR isolate
[23] = Klebsiella pneumoniae KP548, CDC AR isolate
[24] = Klebsiella pneumoniae KP550, CDC AR isolate
[25] = Klebsiella pneumoniae KP552, CDC AR isolate
[26] = Enterococcus faecium EF673, CDC AR isolate
[27] = Pseudomonas aeruginosa PA229, CDC AR isolate
[28] = Pseudomonas aeruginosa PA230, CDC AR isolate
[29] = Pseudomonas aeruginosa PA231, CDC AR isolate
[30] = Pseudomonas aeruginosa PA232, CDC AR isolate
[31] = Pseudomonas aeruginosa PA239, CDC AR isolate

Row | Compound | Antibiotic susceptibility profile (CDC AR isolates [1]; [3]) | Antibiotic susceptibility profile (CDC AR isolates [1]; [4]) | Antibiotic susceptibility profile (CDC AR isolates [1]; [5]) | Antibiotic susceptibility profile (CDC AR isolates [1]; [6]) | Antibiotic susceptibility profile (CDC AR isolates [1]; [7]) | Antibiotic susceptibility profile (CDC AR isolates [1]; [8]) | Antibiotic susceptibility profile (CDC AR isolates [1]; [9]) | Antibiotic susceptibility profile (CDC AR isolates [2]; [10]) | Antibiotic susceptibility profile (CDC AR isolates [1]; [11]) | Antibiotic susceptibility profile (CDC AR isolates [1]; [12]) | Antibiotic susceptibility profile (CDC AR isolates [1]; [13]) | Antibiotic susceptibility profile (CDC AR isolates [1]; [14]) | Antibiotic susceptibility profile (CDC AR isolates [1]; [15]) | Antibiotic susceptibility profile (CDC AR isolates [1]; [16]) | Antibiotic susceptibility profile (CDC AR isolates [1]; [17]) | Antibiotic susceptibility profile (CDC AR isolates [1]; [18]) | Antibiotic susceptibility profile (CDC AR isolates [1]; [19]) | Antibiotic susceptibility profile (CDC AR isolates [1]; [20]) | Antibiotic susceptibility profile (CDC AR isolates [1]; [21]) | Antibiotic susceptibility profile (CDC AR isolates [2]; [26]) | also measured
1 | CCO/N=C(\C(=O)N[C@@H]1C(=O)N2C(C(=O)[O-])=C(Sc3nc(-c4cc[n+](C)cc4)cs3)CS[C@H]12)c1nsc(N)n1 [Ceftaroline] | R | R | R | R | S | S | S | S | – | – | – | – | – | – | – | – | – | – | – | – | –
2 | CC[C@H]1OC(=O)[C@H](C)[C@@H](O[C@H]2C[C@@](C)(OC)[C@@H](O)[C@H](C)O2)[C@H](C)[C@@H](O[C@@H]2O[C@H](C)C[C@H](N(C)C)[C@H]2O)[C@](C)(O)C[C@@H](C)C(=O)[C@H](C)[C@@H](O)[C@]1(C)O [Erythromycin] | – | – | – | – | S | S | I | R | – | – | – | – | – | – | – | – | – | – | – | – | –
3 | CC1(C)S[C@@H]2[C@H](NC(=O)[C@H](N)c3ccccc3)C(=O)N2[C@H]1C(=O)O [Ampicillin] | R | R | R | R | – | – | – | – | R | R | R | R | R | R | R | R | R | S | S | S | Antibiotic susceptibility profile (CDC AR isolates [1]; [22]): R; Antibiotic susceptibility profile (CDC AR isolates [1]; [23]): R; Antibiotic susceptibility profile (CDC AR isolates [1]; [24]): R; Antibiotic susceptibility profile (CDC AR isolates [1]; [25]): R
4 | Teicoplanin | – | – | – | – | – | – | – | – | – | – | – | – | – | – | – | – | S | S | S | S | –
5 | CO[C@H]1/C=C/O[C@@]2(C)Oc3c(C)c(O)c4c(O)c(c(/C=N/N5CCN(C)CC5)c(O)c4c3C2=O)NC(=O)/C(C)=C\C=C\[C@H](C)[C@H](O)[C@@H](C)[C@@H](O)[C@@H](C)[C@H](OC(C)=O)[C@@H]1C [Rifampin] | – | – | – | – | S | S | – | S | – | – | – | – | – | – | – | – | R | I | I | S | –
6 | CN(C)[C@@H]1C(O)=C(C(N)=O)C(=O)[C@@]2(O)C(O)=C3C(=O)c4c(O)cccc4[C@@](C)(O)[C@H]3C[C@@H]12 [Tetracycline] | R | R | R | R | S | S | R | S | R | R | R | S | S | R | I | R | – | – | – | – | Antibiotic susceptibility profile (CDC AR isolates [1]; [22]): R; Antibiotic susceptibility profile (CDC AR isolates [1]; [23]): I; Antibiotic susceptibility profile (CDC AR isolates [1]; [24]): S; Antibiotic susceptibility profile (CDC AR isolates [1]; [25]): R
7 | CNC(C)C1CCC(N)C(OC2C(N)CC(N)C(OC3OCC(C)(O)C(NC)C3O)C2O)O1 (stereo not drawn) [Gentamicin] | S | R | R | S | S | S | S | S | R | R | R | R | S | R | R | S | – | – | – | – | Antibiotic susceptibility profile (CDC AR isolates [1]; [22]): R; Antibiotic susceptibility profile (CDC AR isolates [1]; [23]): S; Antibiotic susceptibility profile (CDC AR isolates [1]; [24]): R; Antibiotic susceptibility profile (CDC AR isolates [1]; [25]): S; Antibiotic susceptibility profile (CDC AR isolates [1]; [27]): S; Antibiotic susceptibility profile (CDC AR isolates [1]; [28]): R; Antibiotic susceptibility profile (CDC AR isolates [1]; [29]): R; Antibiotic susceptibility profile (CDC AR isolates [1]; [30]): R; Antibiotic susceptibility profile (CDC AR isolates [1]; [31]): R
8 | CCCCCCCCCC(=O)N[C@@H](Cc1c[nH]c2ccccc12)C(=O)N[C@H](CC(N)=O)C(=O)N[C@@H](CC(=O)O)C(=O)N[C@@H]1C(=O)NCC(=O)N[C@@H](CCCN)C(=O)N[C@@H](CC(=O)O)C(=O)N[C@H](C)C(=O)N[C@@H](CC(=O)O)C(=O)NCC(=O)N[C@H](CO)C(=O)N[C@@H]([C@H](C)CC(=O)O)C(=O)N[C@@H](CC(=O)c2ccccc2N)C(=O)O[C@@H]1C [Daptomycin] | – | – | – | – | – | S | – | S | – | – | – | – | – | – | – | – | S | S | S | S | –
9 | O=C(N[C@H](CO)[C@H](O)c1ccc([N+](=O)[O-])cc1)C(Cl)Cl [Chloramphenicol] | – | – | – | – | – | – | – | – | – | – | – | – | – | – | – | – | I | R | I | S | –
10 | C[C@H]1c2cccc(O)c2C(=O)C2=C(O)[C@]3(O)C(=O)C(C(N)=O)=C(O)[C@@H](N(C)C)[C@@H]3[C@@H](O)[C@@H]21 [Doxycycline] | – | – | – | – | S | S | I | S | – | – | – | – | – | – | – | – | I | S | I | S | –
11 | C[C@H]1COc2c(N3CCN(C)CC3)c(F)cc3c(=O)c(C(=O)O)cn1c23 [Levofloxacin] | R | R | R | R | R | S | R | R | R | R | R | R | R | R | S | R | R | S | S | S | Antibiotic susceptibility profile (CDC AR isolates [1]; [22]): R; Antibiotic susceptibility profile (CDC AR isolates [1]; [23]): R; Antibiotic susceptibility profile (CDC AR isolates [1]; [24]): R; Antibiotic susceptibility profile (CDC AR isolates [1]; [25]): R; Antibiotic susceptibility profile (CDC AR isolates [1]; [27]): R; Antibiotic susceptibility profile (CDC AR isolates [1]; [28]): R; Antibiotic susceptibility profile (CDC AR isolates [1]; [29]): R; Antibiotic susceptibility profile (CDC AR isolates [1]; [30]): R; Antibiotic susceptibility profile (CDC AR isolates [1]; [31]): R
12 | CN[C@H](CC(C)C)C(=O)N[C@H]1C(=O)N[C@@H](CC(N)=O)C(=O)N[C@H]2C(=O)N[C@H]3C(=O)N[C@H](C(=O)N[C@H](C(=O)O)c4cc(O)cc(O)c4-c4cc3ccc4O)[C@H](O)c3ccc(c(Cl)c3)Oc3cc2cc(c3O[C@@H]2O[C@H](CO)[C@@H](O)[C@H](O)[C@H]2O[C@H]2C[C@](C)(N)[C@H](O)[C@H](C)O2)Oc2ccc(cc2Cl)[C@H]1O [Vancomycin] | – | – | – | – | I | S | S | S | – | – | – | – | – | – | – | – | S | S | S | S | –
13 | C/C(=C\C(=O)OCCCCCCCCC(=O)O)C[C@@H]1OC[C@H](C[C@@H]2O[C@H]2[C@@H](C)[C@H](C)O)[C@@H](O)[C@H]1O [Mupirocin] | – | – | – | – | – | – | R | – | – | – | – | – | – | – | – | – | – | – | – | – | –
